Experimental findings from patent US20250002840A1, “MANUFACTURING METHOD OF MIXED POWDER, MIXED POWDER, POWDER, AND POWDER MEDIUM” (FUJIFILM Corporation, priority 2022, published 2025) are described below.

Data set [1] can be described thus: Liquid property (pH) of the solution obtained in the solubility evaluation. Type of data set: physicochemical. The method, then:
A pH of the solution obtained in the evaluation of solubility was evaluated. Liquid property was evaluated according to the following evaluation standard.

A short description of data set [2]: Overall evaluation based on solubility and liquid property. Type of data set: physicochemical. The following applies: based on the evaluation results of solubility and liquid property.

For `N[C@@H](CSSC[C@H](N)C(=O)O)C(=O)O` [Comparative Example 1, L-cystine], the Liquid property result in data set [1] was “Neutral (pH of 6.0 to 8.5)”. In data set [2], the Overall evaluation result is given as “E (the solution was still turbid even after 1 hour, and/or the pH was other than neutral)”.
